According to patent US20250215071A1, “Novel Mcl-1 inhibitor and combination of Mcl-1 and a BH3 mimetic, such as a Bcl-2 inhibitor” (NETRIS PHARMA, priority 2022, published 2025):
Residues, ends and D or L forms follow the SMILES beside them. *: point of attachment. Cbz = O=C(OCc1ccccc1)*

How the values were obtained:
Type in all cases: cell-based, Human
HeLa UNC5B cells = experiment: UNC5B-induced DNA fragmentation in HeLa UNC5B cells; conditions: doxycycline-induced UNC5B; 18 hours
Protocol: FIG. 2. CRISPR-Cas9 screening identifies genes and molecular pathways involved in UNC5B-induced cell death. Related to FIG. 1. (A): UNC5B induction upon treatment with doxycycline. Stable HCT116 cells, inducible for UNC5B, were treated with the indicated concentrations of doxycycline (Dox). 24 hours later, protein levels of FLAG-UNC5B and GAPDH, used as housekeeping gene, were assessed by western blot. (B): UNC5B induction upon treatment with doxycycline on Hela cells. Stable Hela cells inducible for UNC5B (HeLa UNC5B) were treated with the indicated doses of Dox for 18 hours. Protein levels of His-UNC5B and β-actin, used as housekeeping gene, were measured by western blot. (C,D,E): Induction of UNC5B triggers apoptotic cell death in HCT116 cells. Stable HCTT16 cells inducible for human UNC5B were treated with Dox. To assess cell death, propidium iodide (PI) incorporation was followed in real-time up to 36 hours, using an Incucyte Zoom technology (n=3, ** p<0.01, Kolmogorov Smirnov test) (C). Apoptosis was assessed 18 hours after Dox treatment by DNA fragmentation through flow cytometry ([…] (D) and by caspase-3 activity (E), quantified by fluorometric detection kit (n=3, *p<0.05, ** p<0.01, *** p<0.001, Ordinary two-way ANOVA). Values are given as means±SEM. (F): Caspase inhibition rescues apoptosis triggered by UNC5B. HeLa UNC5B cells were treated with Dox and the pan-caspase inhibitor […] (QVD). 18 hours later, DNA fragmentation was evaluated by flow cytometry (n=3, **** p<0.0001, ordinary two-way ANOVA with Šidák's multiple comparisons test). Values are given as means±SEM. […] The number of guides showing an increase in reads compared to control condition is shown for each gene.
FIG. 4. […] 18 hours after treatment, apoptosis was measured by DNA fragmentation (A) and caspase-3 activity (B) (n=3-4, **** p<0.0001, ordinary two-way ANOVA with Tukey's multiple comparisons test). […] Protein levels of Mcl-1, Bcl-2 and Bcl-XL, as well as of UNC5B and B-actin, used as housekeeping gene, were evaluated by western blot. […]

caspase-3 = experiment: UNC5B-induced caspase-3 activity in HeLa UNC5B cells; conditions: doxycycline 2 μg/mL; 18 hours
Protocol: Caspase-3 and -9 activity assays were performed as described previously (Paradisi et al., 2013; Paradisi et al., 2009). Briefly, HCT116 and HeLa cells were seeded and treated as for DNA fragmentation assay. Cells were then collected and caspase-3/caspase 9 activity assays were performed using the Caspase-3/Caspase-9 Fluorometric Assay Kit (BioVision, Milpitas, CA, USA), according to the manufacturer's instructions. Caspase activity (activity/min/mg of protein) was calculated from a 1 h kinetic cycle reading on a spectrofluorometer (405 nm/510 nm, Infinite F500, Tecan, Männedorf, Switzerland).

caspase-9 = experiment: UNC5B-induced caspase-9 activity in HeLa UNC5B cells; conditions: Dox; 18 hours
Protocol: FIG. 5. UNC5B-mediated Mcl-1 degradation induces MOMP and caspase-9 activation. (A): UNC5B over-expression triggers Mitochondrial Outer Membrane Permeabilization (MOMP) in a COMMD2/CRL3 complex-dependent manner. Hela cells were transfected with scramble (siCTRL), COMMD2 (siCOMMD2-1) or RBX1 (siRBX1-1) siRNAs. 24 hours after transfection, cells were treated with Dox and after further 18 hours mitochondrial depolarization quantified by 5′,6,6′-tetrachloro-1,1′,3,3′-tetraethylbenzimi-dazolylcarbocyanine iodide (JC-1) dye staining, using NucleoCounter NC3000 (n=3, **** p<0.0001, ordinary two-way ANOVA with Tukey's multiple comparisons test). Values are given as means±SEM. (B,C,D): Apoptotic cell death induced by UNC5B over-expression requires caspase-9. HeLa UNC5B cells were transfected with scramble (siCTRL) or caspase-9 (siCASP9) siRNAs and 24 hours later treated with the indicated concentrations of Dox. Propidium iodide (PI)-positive cells were assessed in real-time up to 48 hours using Incucyte Zoom instrument (C) (n=[…], Kolmogorov-Smirnov test). DNA fragmentation was assessed by FACS analysis (D) and caspase-3 was measured using caspase-3 fluorometric kit (E), both 18 hours after treatment (n=[…], **** p<0.0001, ordinary two-way ANOVA with Šidák's multiple comparisons test). Values are given as means±SEM. […] HeLa UNC5B cells were treated with Dox and 18 hours later caspase-9 and -8 activities were assessed by fluorometric kit, using specific substrates (n=3, ^nsp>0.05, *p<0.05, Mann-Whitney test, one-tailed). […] 24 hours later, cells were treated with Dox and caspase-9 activity was measured by fluorometric kit (n=3, **** p<0.0001, ordinary two-way ANOVA with Tukey's multiple comparisons test). […] 18 hours after treatment, caspase-9 activity was assessed with the fluorometric kit (n=5, *p<0.05, ** p<0.01, *** p<0.001, **** p<0.0001, ordinary two-way ANOVA with Tukey's multiple comparisons test). […] Cells were then treated with Dox and Mcl-1 protein was evaluated by western blot. […]

Mcl-1 = Mcl-1 protein levels by western blot in HeLa UNC5B cells; conditions: endogenous Mcl-1; 2 μg/mL Dox; BTZ 1 μM, QVD 10 µM; 16 hours
Protocol: FIG. 4. UNC5B triggers proteasomal degradation of Mcl-1. (A,B): UNC5B-induced apoptosis requires proteasome activity. Stable Hela cells inducible for UNC5B (HeLa UNC5B) were treated with doxycycline (Dox) at 2 μg/mL, in combination with the indicated doses of the proteasome inhibitors MG132 and bortezomib (BTZ). 18 hours after treatment, apoptosis was measured by DNA fragmentation (A) and caspase-3 activity (B) (n=3-4, **** p<0.0001, ordinary two-way ANOVA with Tukey's multiple comparisons test). Values are given as means±SEM Treatment with proteasome inhibitors was sufficient to strongly reduce apoptosis induction upon UNC5B over-expression. (C): UNC5B triggers Mcl-1 degradation. HeLa UNC5B cells were treated with 2 μg/mL of Dox, in combination with bortezomib (BTZ, 1 μM) and the pan-caspase inhibitor Q-VD-OPh (QVD, 10 µM) inhibitors. 16 hours after treatment, cells were lysed by scraping and sonication in SDS-containing buffer. Protein levels of Mcl-1, Bcl-2 and Bcl-XL, as well as of UNC5B and B-actin, used as housekeeping gene, were evaluated by western blot. […] UNC5B over-expression specifically promoted Mcl-1 protein decrease. […] (D): Mcl-1 degradation induced by UNC5B requires COMMD2/CRL3 complex. HeLa UNC5B cells were transfected with scramble (siCTRL), COMMD2 (siCOMMD2) or RBX1 (siRBX1) siRNAs. […] Protein levels of Mcl-1, UNC5B and Ku80, used as housekeeping protein, were evaluated by western blot. […] Stable HeLa UNC5B cells, constitutively expressing Mcl-1 or empty vector, were treated with doxycycline and apoptosis was evaluated 18 hours later by DNA fragmentation (n=3, ^nsp>0.05, ordinary two-way ANOVA with Sidak's multiple comparisons test). […] Stable HeLa UNC5B cells, constitutively expressing Mcl-1, Bcl-2 or Bcl-XL were treated with Dox and protein levels were evaluated as described in (C). […] 18 hours later, protein levels of Mcl-1, UNC5B and β-actin, used as housekeeping gene, were evaluated by western blot. […] Cells were harvested at the indicated times after CHX treatment, and protein levels were assessed by western blot. […]

Row | Compound | UNC5B-induced apoptosis (DNA fragmentation) (HeLa UNC5B cells) | UNC5B-induced caspase-3 activation (caspase-3) | UNC5B-induced caspase-9 activation (caspase-9) | Mcl-1 protein levels / degradation triggered by UNC5B (Mcl-1)
1 | CC(C)C[C@@H](C=O)NC(=O)[C@H](CC(C)C)NC(=O)[C@H](CC(C)C)NC(=O)OCc1ccccc1 [MG132] (Cbz-Leu-Leu-Leu-aldehyde) | suppressed | suppressed | sufficient to prevent UNC5B-induced caspase-9 activation | 
2 | CC(C)[C@H](NC(=O)c1ccc2ccccc2n1)C(=O)N[C@@H](CC(=O)O)C(=O)COc1c(F)cccc1F [Q-VD-OPh] | completely prevented apoptosis induction |  |  | not sufficient to prevent Mcl-1 degradation
